Reference: US8377883B2, “Peptide for anti-angiogenesis and use thereof” (Beijing Institute for Cancer Research, priority 2006, dated 2013)

Legend:
[1] = system: human colon cancer HT-29 cells; test: Tumor suppression in human colon cancer HT-29 tumor-bearing nude mice model; format: in vivo, Balb/c nude mice; settings: 50 μg/100 μl PBS/injection, angulus oculi medialis vein once every other day, 10 times; vs vehicle, P<0.05
Method: In order to confirm the biological effects of FpAT on the growth of human deriving tumors in nude mice in vivo, a tumor suppression experiment was carried out in this example using human gastric carcinoma BGC-823 cells tumor-bearing nude mice model, human lung cancer PG cells tumor-bearing nude mice model and human colon cancer HT-29 cells tumor-bearing nude mice model.
Twenty 5-week old Balb/c nude mice purchased from Animal Center Of Chinese Academy Of Medical Sciences were inoculated subcutaneously in forelimb with human gastric carcinoma BGC-823 cells (National Institute for the Control of Pharmaceutical and Biological Products) (5×10^6/100 μl/mouse), human lung cancer PG cells (National Institute for the Control of Pharmaceutical and Biological Products) (5×10^6/100 μl/mouse) or human colon cancer HT-29 cells (ATCC® Number: HTB-38™) (5×10^6/100 μl/mouse). On the next day after inoculation, each kind of inoculated cells were divided into 2 groups randomly with 5 mice per group. […] Observation was continued for another 20 days after administration was stopped, and during this period the long and short diameters of the tumors were measured with a vernier caliper once every three days, and the volumes of the tumor mass were calculated according to formula ½×long diameter×short diameter^2. […]

[2] = system: endothelial cells of mouse aorta; test: Growth of primary endothelial cells from mouse aorta segments on Matrigel; format: cell-based, Balb/c mice; settings: 10, 25, 100 μg/ml PBS; 48 hours, 72 hours
Method: The Balb/c mice were sacrificed by dislocating the neck and aorta were detached and washed off the blood cells therein with PBS. The cleaned aorta was cut into aorta segments in length of 1 mm, which were planted vertically in 24-well cell culture plate coated with Matrigel gel (BD company); and 10% FCS/RPMI1640 was added, and the plates were placed and cultured in CO2 incubator (37° C., 5% CO2). The vehicle (PBS) and FpAT (10 μg/ml PBS, 25 μg/ml PBS, 100 μg/ml PBS) were added separately, with 3 parallel wells per group, and the cultivation was performed for 48 hours, 72 hours. Then the growth of mouse aorta endothelial cell was observed under microscope.

[3] = system: pig aorta endothelial cells (PAEC); test: MTT proliferation of pig aorta endothelial cells; format: cell-based; settings: similar experiment to HUVEC MTT

Substance: H2N-Asp-Ser-Gly-Glu-Gly-Asp-Phe-Leu-Ala-Glu-Gly-Gly-Gly-Val-Arg-COOH (H-DSGEGDFLAEGGGVR-OH; listed as Homo sapiens) [FpAT, fibrinopeptide A truncated, carboxyl terminal 15 amino acids of fibrinopeptide A]
- growth of human colon cancer HT-29 cells in nude mice (tumor mass) [1]: could suppress the growths
- growth of vascular endothelial cell of mouse aorta [2]: can suppress specifically the growth
- proliferation, migration and ability to form tubular structure of vascular endothelial cell of mouse aorta [2]: suppress notably
- suppression of PAEC proliferation [3]: came to a same conclusion
